Our source for the GI50 and TGI values is PubChem BioAssay (NCI).

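A five-concentration, 48-hour dose response in 96-well plates underlies each endpoint, interpolated linearly between surrounding concentrations. GI50 is the concentration that inhibits growth by half. Definition used: TGI = concentration required for complete inhibition of growth.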

What all share (assay): NCI anticancer screen, dose series, 48 h
Assay [1] has as its system NCI-H226 lung.
Assay [2] relates to HCC-2998 colon.
The test system of assay [3] is A549 NSCLC.
Assay [4] concerns KM20L2 colon.
Assay [5] deals with SF-268 CNS.
Assay [6] relates to A498 renal.
Assay [7] has as its system SK-MEL-5 melanoma.
The test system of assay [8] is COLO 205 colon.
In assay [9] the test system is LXFL 529 NSCLC.

Take `C[CH2][Ge]([CH2]C)([CH2]C)[O]C(=O)C([O][Ge]([CH2]C)([CH2]C)[CH2]C)c1ccccc1` (stereo unspecified): the GI50 in assay [1] is 25.7 µM; in [2] it was 19.2 µM; in assay [3] it was 12.7 µM; in assay [4] it was 17 µM; in assay [5] it was 25.8 µM; in [6], 19.2 µM. Besides, the values for the GI50 in assay [7], in [8] and in assay [9] were 11.8 µM, 22.1 µM and 9.67 µM, respectively. In addition, the TGI in [1] was 88 µM; in assay [2], 38.5 µM; in [3] it was 56.4 µM; in assay [4], 42.8 µM; in assay [5], over 100 µM; in assay [6], 67.5 µM. For the same molecule, the TGI in [7] stood at 26.8 µM; in [8] it was 55.7 µM; in assay [9] it was 44.9 µM.
For `O=C([CH-]C(=O)c1ccccc1)c1ccccc1.[CH3-].[CH3-].[CH3-].[Sn+4]`, the GI50 is 6.62 µM in assay [1]; 18.7 µM in [2]; 17.1 µM in assay [3]; 16.3 µM in [4]; 12.9 µM in [5]; 35.4 µM in assay [6]. Moreover, the GI50 is 8.21 µM in assay [7] and 17.8 µM in [8]. The TGI in assay [1] is 65.7 µM; in assay [2] it was 47.5 µM; in [3], over 100 µM; in assay [4] it was 58 µM; in assay [5], 81.3 µM; in [6] it was over 100 µM. Besides, the TGI in assay [7] was found to be 35.1 µM; in assay [8], 35.8 µM.
Turning to `CCP(C)(C)=O`, the TGI in assay [2], in assay [3], in assay [4], in [5], in [6] and in assay [7] was over 100 µM throughout. Moreover, the TGI in [8] and in assay [9] was over 100 µM in each case.
For the molecule `CC1(C)Cc2nnsc2C2=C1C(=O)CCS2`, the TGI in assay [2], in assay [3], in [4], in [5], in [7] and in [8] was over 100 µM throughout. The TGI in assay [9] is over 100 µM.
Regarding `C/C=C/C=C/CCCCCCCCCCCCC[C@]1(OC)C=CC(CC(=O)OC)OO1` (stereo partly specified), the GI50 is 24.3 µM in assay [2]; 35 µM in assay [3]; 23.9 µM in assay [4]; 18.9 µM in assay [8]; 14.7 µM in [9]. In addition, the TGI in assay [2] is 47.9 µM; in [3] it was over 100 µM; in assay [4] it was 51.1 µM; in assay [5], 46.4 µM; in [7], 31.1 µM; in assay [8] it was 36.1 µM. For the same molecule, the TGI in assay [9] was 28.2 µM.
Consider `CCOC(=O)C1=C(c2ccccc2)NC(c2ccccc2)=C(C(=O)OCC)c2c1c(=O)cc[nH]c2=O`, for which the TGI in assay [1], in assay [2], in assay [3], in [4], in assay [5] and in assay [8] was over 100 µM in each case. The molecule further gave a TGI in assay [9] of over 100 µM.
For `NCCn1cnc2nc(NC(=O)c3ccccc3)[nH]c(=O)c21`, the TGI in assay [1], in [2], in assay [3], in assay [4], in [5] and in [6] was over 100 µM throughout. Also, the TGI in assay [8] and in [9] was over 100 µM in each case.
Consider `Cc1ccccc1NC(=O)C(=O)CC(=O)C1CCOC1=O` (stereo unspecified), for which the TGI in assay [1], in assay [2], in assay [3], in assay [4], in assay [5] and in assay [6] was over 100 µM each time. In addition, the TGI in [7], in assay [8] and in [9] was over 100 µM each time.
With `Cc1cccc(C)c1NC(=O)CCCC(=O)C(C#N)c1ccc(Cl)cc1` (stereo unspecified), the TGI in assay [1], in assay [2], in [3], in assay [4], in assay [5] and in [6] was over 100 µM throughout. Moreover, the TGI in assay [7], in [8] and in assay [9] was over 100 µM each time.
As to `COc1ccc(/C(=C\c2cc(OC)c(OC)c(OC)c2)C(=O)O)cc1`, the TGI in assay [1] is 77.4 µM; in assay [3], over 100 µM; in assay [4], 45 µM; in assay [5] it was over 100 µM; in assay [6], 53.3 µM; in assay [7], 41.7 µM. The TGI in [8] was 35.2 µM; in assay [9] it was over 100 µM.
`COc1ccc(C(=O)C/C(=N/NC(N)=S)C(=O)Nc2ccccc2)cc1`: the TGI in assay [1], in assay [2], in assay [3], in [4], in assay [5] and in assay [6] was over 100 µM each time. Besides, the TGI in [7], in assay [8] and in [9] was over 100 µM in each case.
On to `CCOC(=O)C1=C(C)N(NC(=O)OC)C2(N)N(NC(=O)OC)C(C)=C(C(=O)OCC)C12C#N` (stereo unspecified), for which the TGI in assay [1], in assay [2], in assay [3], in assay [4], in [5] and in assay [6] was over 100 µM in each case. For the same molecule, the TGI in assay [7] and in [9] was over 100 µM in each case.
Consider `CN(C)CCC(=O)N1CCc2c([nH]c3ccccc23)C1c1cccnc1` (stereo unspecified), for which the TGI in [2], in assay [3], in assay [4], in assay [5], in assay [6] and in assay [7] was over 100 µM throughout. In addition, the TGI in assay [9] was over 100 µM.
